Data as given in patent US6403112B2, “Ectoin and ectoin derivatives as moisturizers in cosmetics” (Merck Patent Gesellschaft mit beschrankter, priority 1993, dated 2002).

Test: Water absorption capacity at 65% relative atmospheric humidity
Assay type: physicochemical
Conditions: relative atmospheric humidity of 65%; 1 g of anhydrous substance kept in sealed chamber until weight is constant
Method: A) Water absorption capacity The water absorption capacity of the compound of Example 1 is determined at a relative atmospheric humidity of 65%. The control substances used are in each case glycerol and propylene glycol. In each case 1 g of the anhydrous substance is kept in a sealed chamber until the weight is constant. The water absorption capacity is calculated as follows: [formula] Ectoin has a water absorption of 25% and, in comparison with glycerol or propylene glycol (60 and 45%, respectively) a less pronounced hygroscopic behavior. However, with regard to its use as a moisturizer, the dehydrating effect known from unduly high glycerol concentrations can be ruled out.

water absorption [%]	SMILES
25	CC1=N[C@H](C(=O)O)CCN1 [Ectoin, (S)-1,4,5,6-tetrahydro-2-methyl-4-pyrimidinecarboxylic acid]
60	OCC(O)CO [glycerol]
45	CC(O)CO (stereo not drawn) [propylene glycol]
